Assays:
Format in all cases: cell-based
[1] = system: hTERT (telomerase-immortalized normal epithelial cell line); test: Cytotoxicity (sulforhodamine B growth assay), Protocol A, hTERT cells; conditions: 62.5-250 μg/ml added on day of plating, replenished every 3 days
Protocol: (§1) The cell lines selected were KB (human epidermoid carcinoma in the mouth, ATCC #CCL-17), Lu-1 (human lung cancer cell lines, obtained from the Department of Surgical Oncology, University of Illinois, College of Medicine), and hTERT (telomerase-immortalized normal epithelial cell line, Clontech #C4000-1). Various doses of the compounds were evaluated under two treatment protocols. In Protocol A, cultures of each of the KB, Lu and hTERT cells were treated with various doses of the three conjugate compounds from the day of culture onward. In Protocol B, cultures of each of the KB, Lu and hTERT cells were grown to confluence (9 days), and then treated with various doses of the Transferrin-7-paclitaxel conjugate for the duration of the experiment.
(§2) KB was cultured in DMEM (GIBCO) supplemented with 10% fetal bovine serum (FBS), 100 units/ml penicillin G, 100 μg/ml streptomycin sulfate, 0.25 μg/ml amphotericin B (Fungizone) (PSF) (GIBCO) and 1% non-essential amino acids (NAA) (Sigma). Lu was maintained in MEME (GIBCO) supplemented with 10% FBS, PSF, and 1% NAA. hTERT-RPE1 was maintained in DMEM/F-12 (GIBCO) supplemented with 10% FBS+PSF. All cell lines were cultured at 37° C. in 100% humidity with a 5% CO2 atmosphere in air.
(§3) The overall procedures were those as described by Skehan et al., New calorimetric cytotoxicity assay for anticancer-drug screening, J. Natl. Cancer Inst. 82:1107-1112, 1990, and Likhitwitayawuid et al., Cytotoxic and antimalarial bisbenzylisoquinoline alkaloids from Stephania erecta. J. Nat. Prod. 56:30-38, 1993. Cells were typically grown to 60-70% confluence, the medium was changed, and the cells were used for test procedures one day later. Test samples were initially dissolved in sterilized PBS. Serial dilutions were performed using PBS as the solvent, and 10 μl were added to the three wells. PBS (10 μl) was added to control groups. […] The plates were placed on a shaker for 5 minutes, and the absorption was determined at 515 nm using an ELISA plate reader. […]

[2] = system: KB (human epidermoid carcinoma in the mouth); test: Cytotoxicity (sulforhodamine B growth assay), Protocol A, KB cells; conditions: for effect on cell growth (optical density versus time): 62.5-250 μg/ml added on day of plating, replenished every 3 days
Protocol: as §1, §2
(§4) The overall procedures were those as described by Skehan et al., New calorimetric cytotoxicity assay for anticancer-drug screening, J. Natl. Cancer Inst. 82:1107-1112, 1990, and Likhitwitayawuid et al., Cytotoxic and antimalarial bisbenzylisoquinoline alkaloids from Stephania erecta. J. Nat. Prod. 56:30-38, 1993. Cells were typically grown to 60-70% confluence, the medium was changed, and the cells were used for test procedures one day later. Test samples were initially dissolved in sterilized PBS. Serial dilutions were performed using PBS as the solvent, and 10 μl were added to the three wells. PBS (10 μl) was added to control groups. After the plates were prepared, cells were removed from the tissue culture flasks by treatment with trypsin, enumerated, and diluted with fresh media. KB (3×10^4 cells/ml), Lu (5×10^4 cell/ml) and hTERT-RPE1 (4×10^4 cells/ml) cells (in 190 μl of media) were added to the 96-well plates. The plates were incubated at 37° C. in 5% CO2, the cells fixed by addition of 100 μl of cold 20% trichloroacetic acid and incubated at 4° C. for 30 min. The plates were washed with tap water (3×) and dried overnight. The fixed cells were stained 30 min by the addition of 100 μl of 0.4% sulforhodamine B (w/v) dissolved in 1% acetic acid. The plates were washed with 1% acetic acid (3×) and allowed to dry. The bound dye was solubilized by the addition of 10 mM unbuffered Tris base, pH 10 (200 μl/well). The plates were placed on a shaker for 5 minutes, and the absorption was determined at 515 nm using an ELISA plate reader. In each case, a zero-day control was performed by adding an equivalent number of cells to several wells of the 96-well plates and incubating at 37° C. for a period of 30 min. The cells were then fixed with tichloroacetic acid and processed as described above.
The first series of studies were conducted with the Transferrin-3-cholesterol conjugate, the Transferrin-rhodamine123 conjugate and the Transferrin-7-paclitaxel conjugate following Protocol A, in which various concentrations of test compounds ranging from 62.5-250 μg/ml were added on the day of plating, and media were replenished every 3 days, maintaining the same concentrations of the test compounds. As shown by plotting optical density versus time, the Transferrin-3-cholesterol conjugate and the Transferrin-rhodamine123 conjugate were not active with any of the cell lines (FIGS. 5, 6, 8, 9, 11, 12).
Therefore, the experiment was repeated with the Transferrin-7-paclitaxel conjugate with lower concentrations.

[3] = system: Lu-1 (human lung cancer cell lines); test: Cytotoxicity (sulforhodamine B growth assay), Protocol A, Lu cells; conditions: 62.5-250 μg/ml added on day of plating, replenished every 3 days
Protocol: as §1, §2, §3

[4] = system: KB (human epidermoid carcinoma in the mouth); test: Cytotoxicity (sulforhodamine B growth assay), Protocol B (confluent cultures), KB cells; conditions: KB cells grown 9 days before treatment
Protocol: as §1, §2, §3

[5] = system: hTERT (telomerase-immortalized normal epithelial cell line); test: Cytotoxicity (sulforhodamine B growth assay), Protocol B (confluent cultures), hTERT cells; conditions: for effect on cell growth: hTERT cells grown 9 days before treatment
Protocol: as §1, §2, §4

[6] = system: Lu-1 (human lung cancer cell lines); test: Cytotoxicity (sulforhodamine B growth assay), Protocol B (confluent cultures), Lu cells; conditions: Lu cells grown 9 days before treatment
Protocol: as §1, §2, §3

“Transferrin-3-cholesterol conjugate: 3-acyl-pentanal cholesterol linked with Transferrin; non-cytotoxic molecule control conjugate” was tested, and the “effect on cell growth (optical density versus time)” value [1] was “not active”, the “effect on cell growth (optical density versus time)” value [2] was “not active” and the “effect on cell growth (optical density versus time)” value [3] was “not active”.
In the case of “Transferrin-7-paclitaxel conjugate: 7-acyl-pentanal paclitaxel linked to Transferrin through Schiff base; 3 paclitaxel per Transferrin”, the “effect on cell number” value ([4]; 0.5 μg/ml) is reported as “cell number paralleled that of the control”, the “effect on cell number” value ([4]; 5 μg/ml) is reported as “significant reduction in cell number” and the “effect on cell number” value ([4]; 50 μg/ml) is reported as “significant reduction in cell number”. The “effect on cell growth (optical density versus time)” value [1] was “complete inhibition of cell growth”, the “effect on cell growth” value ([2]; 0.5 μg/ml) was “no effect on growth” and the “effect on cell growth” value ([2]; 5 μg/ml) was “complete growth inhibition”. The “effect on cell growth” value ([2]; 50 μg/ml) was “complete growth inhibition”, the “effect on cell growth (optical density versus time)” value [2] was “complete inhibition of cell growth” and the “effect on cell growth (optical density versus time)” value [3] was “complete inhibition of cell growth”. For the same substance, the “selectivity: cancer cells (KB and Lu) versus normal cells (hTERT)” value ([5]; conclusion from KB, Lu and hTERT results) was “primarily targeting cancer cells (KB and Lu) while not significantly affecting normal cells (hTERT)”, the “effect on cell growth” value ([5]; 0.5 μg/ml) was “Slight increases in cell growth” and the “effect on cell growth” value ([5]; 5 μg/ml) was “Slight increases in cell growth”. For the same substance, the “effect on cell growth” value ([5]; 50 μg/ml) was “growth was diminished”, the “cell number on day 16” value ([5]; hTERT cells, 50 μg/ml, day 16 versus day 9) was “approximately the same as on day 9” and the “effect on cell number (reduction relative to that at 50 μg/ml)” value ([6]; 0.5 μg/ml) was “negated”. The “effect on cell number (reduction relative to that at 50 μg/ml)” value ([6]; 5 μg/ml) was “diminished” and the “effect on cell number” value ([6]; 50 μg/ml) was “significant reduction in cell number”.
“Transferrin-rhodamine123 conjugate: rhodamine123 linked to Transferrin using glutaraldehyde as a linker between free amino groups” was tested, and the “effect on cell growth (optical density versus time)” value [1] was “not active”, the “effect on cell growth (optical density versus time)” value [2] was “not active” and the “effect on cell growth (optical density versus time)” value [3] was “not active”.

— patent US6825166B2 (priority 2001, dated 2004)
